Measurements: US8575091B1, “Amylin analogues and pharmaceutical compositions thereof” (Novo Nordisk A/S, priority 2012, dated 2013)
Like-named read-outs stand apart in the source and are kept apart here. Numbered stars: 1 amine (or outer) side, 2 acyl side, 3 side chain; on linkers, the order of the positions; unused ones are H or OH. Bridge positions count the residues as written; N and C are the ends. Side chains are listed from the residue outwards. Peptide text beside a SMILES is read from it. * marks the point of attachment. C20 diacid = O=C(O)CCCCCCCCCCCCCCCCCCC(=O)*; γGlu = O=C(O)[C@H](CCC(=O)[*:2])N[*:1]; AEEA = NCCOCCOCC(=O)O

Columns and labels:
[1] = biological target: T1, human amylin receptor (amylin 3(a) receptor: human calcitonin receptor + RAMP-3) (Homo sapiens, UniProt O60896+P30988); test: Assay (II)a functional assay, human amylin receptor (CRE luciferase, BHK cells); format: cell-based; settings: for EC50: read-out: hAmylin-R funct. EC50
T1 construct: expressed in transfected cells
T1 sequence (P30988 25-474): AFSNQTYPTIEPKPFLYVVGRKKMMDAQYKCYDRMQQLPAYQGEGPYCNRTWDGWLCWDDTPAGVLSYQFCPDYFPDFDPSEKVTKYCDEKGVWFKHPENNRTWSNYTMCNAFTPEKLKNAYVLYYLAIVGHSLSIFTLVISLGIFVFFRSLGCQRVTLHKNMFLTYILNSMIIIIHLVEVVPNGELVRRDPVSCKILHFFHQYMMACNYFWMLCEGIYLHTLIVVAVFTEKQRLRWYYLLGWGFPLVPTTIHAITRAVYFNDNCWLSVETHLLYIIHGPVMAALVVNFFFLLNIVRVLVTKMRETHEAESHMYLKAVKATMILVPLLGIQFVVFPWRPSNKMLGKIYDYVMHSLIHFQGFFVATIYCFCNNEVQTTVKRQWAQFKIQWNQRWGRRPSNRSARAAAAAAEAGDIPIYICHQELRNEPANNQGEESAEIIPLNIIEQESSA
T1 sequence (O60896 24-148 partner): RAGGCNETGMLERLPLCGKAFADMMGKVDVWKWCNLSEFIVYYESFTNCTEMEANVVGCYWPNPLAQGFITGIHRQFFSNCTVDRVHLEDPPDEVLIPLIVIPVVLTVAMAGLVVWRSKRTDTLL

[2] = biological target: T2, human calcitonin receptor (Homo sapiens, UniProt P30988); test: Assay (II)a functional assay, human calcitonin receptor (CRE luciferase, BHK cells);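 further: luminescence from a CRE-driven luciferase reporter, read by single photon counting after cells were exposed to test samples for 3 h at 37 °C under 5% CO2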; format: cell-based; settings: read-out: hCTR funct. EC50
T2 construct: expressed in transfected cells
T2 sequence (P30988 25-474): T1 sequence (P30988 25-474)

human amylin receptor = biological target: T3, human amylin receptor (Homo sapiens, UniProt O60896+P30988); test: Assay (V) binding to the human amylin receptor (SPA, 125I-rat amylin); settings: human amylin receptor membranes, SPA; read-out: hAmylin-R bind IC50
T3 construct: expressed in transfected cells
T3 sequence (P30988 25-474): T1 sequence (P30988 25-474)
T3 sequence (O60896 24-148 partner): T1 sequence (O60896 24-148 partner)
In short: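 SPA competition binding on membranes from Amylin 3(a)/CRE-luc cells, 35 ng/μL membranes with 0.05 mg/well beads. Buffer 50 mM Hepes pH 7.4, 1 mM CaCl2, 5 mM MgCl2, 0.1% OA, 0.02% Tween20. IC50 from one-site competition fit as affinity measure.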

[3] = biological target: T2, human calcitonin receptor; test: Assay (VII) binding to the human calcitonin receptor (SPA, 125I-Calcitonin); settings: read-out: hCTR bind IC50;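 further: cell membranes coupled to SPA beads, competitive displacement read by scintillation counting, IC50 derived from a one-site competition fit as a measure of receptor affinity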
[4] = Table 6, human functional selectivity (hCTR EC50 / hAmylin-R EC50)
[5] = functional assay, human amylin receptor

Row | Ratio hCT/hAmylin funct. [1, 4] | Ratio hCT/hAmylin funct. ([1]; Table 6a, human functional selectivity (hCTR EC50 / hAmylin-R EC50), at least 5) | Ratio hCT/hAmylin funct. ([1]; Table 6j, hCTR funct. EC50 / hAmylin-R funct. EC50) | EC50 ([1]; Table 6j, human amylin receptor functional) | Ratio hCT/hAmylin funct. ([1]; Table 6k, hCTR funct. EC50 / hAmylin-R funct. EC50) | EC50 [2] | IC50 (human amylin receptor) | IC50 [3] | EC50 [1, 5] | Compound
1 | 9.8 | 9.8 | 9.8 | 0.064 nM | 9.8 | 0.625 nM | 0.052 nM | 5.38 nM | – | CC[C@H](C)[C@H](NC(=O)[C@H](C)NC(=O)CNC(=O)[C@H](Cc1ccccc1)NC(=O)[C@H](CC(N)=O)NC(=O)[C@@H]1CCCN1C(=O)[C@H](CO)NC(=O)[C@H](CO)NC(=O)[C@H](Cc1c[nH]cn1)NC(=O)[C@H](CCCNC(=N)N)NC(=O)[C@H](CC(C)C)NC(=O)[C@H](Cc1ccccc1)NC(=O)[C@H](CC(N)=O)NC(=O)[C@H](C)NC(=O)[C@H](CC(C)C)NC(=O)[C@H](CCCNC(=N)N)NC(=O)[C@H](CCC(N)=O)NC(=O)[C@@H](NC(=O)[C@H](C)NC(=O)[C@@H]1CSSC[C@H](NC(=O)[C@@H](N)CCCCNC(=O)COCCOCCNC(=O)CC[C@H](NC(=O)CCCCCCCCCCCCCCCCCCC(=O)O)C(=O)O)C(=O)N[C@@H](CC(N)=O)C(=O)N[C@@H]([C@@H](C)O)C(=O)N[C@@H](C)C(=O)N[C@@H]([C@@H](C)O)C(=O)N1)[C@@H](C)O)C(=O)N1CCC[C@H]1C(=O)N1CCC[C@H]1C(=O)N[C@@H](CO)C(=O)N[C@H](C(=O)N1CCC[C@H]1C(=O)N[C@H](C(=O)NCC(=O)N[C@@H](CO)C(=O)N[C@@H](CC(N)=O)C(=O)N[C@H](C(=O)N[C@@H](Cc1ccc(O)cc1)C(N)=O)[C@@H](C)O)C(C)C)[C@@H](C)O [Example 53] (H-K([AEEA-γGlu-C20 diacid])CNTATCATQRLANFLRHSSPNFGAIPPSTPVGSNTY-NH2; disulfide 2-7)
2 | – | – | – | – | – | 0.899 nM | 0.195 nM | 9.53 nM | 0.088 nM | CC[C@H](C)[C@H](NC(=O)[C@H](C)NC(=O)CNC(=O)[C@H](Cc1ccccc1)NC(=O)[C@H](CC(N)=O)NC(=O)[C@@H]1CCCN1C(=O)[C@H](CO)NC(=O)[C@H](CO)NC(=O)[C@H](Cc1c[nH]cn1)NC(=O)[C@H](CCCNC(=N)N)NC(=O)[C@H](CC(C)C)NC(=O)[C@H](Cc1ccccc1)NC(=O)[C@H](CC(N)=O)NC(=O)[C@H](C)NC(=O)[C@H](CC(C)C)NC(=O)[C@H](CCCNC(=N)N)NC(=O)[C@H](CCC(N)=O)NC(=O)[C@@H](NC(=O)[C@H](C)NC(=O)[C@@H]1CSSC[C@H](NC(=O)[C@H](CCCNC(=N)N)NC(=O)CNC(=O)CC[C@H](NC(=O)CCCCCCCCCCCCCCCCCCC(=O)O)C(=O)O)C(=O)N[C@@H](CC(N)=O)C(=O)N[C@@H]([C@@H](C)O)C(=O)N[C@@H](C)C(=O)N[C@@H]([C@@H](C)O)C(=O)N1)[C@@H](C)O)C(=O)N1CCC[C@H]1C(=O)N[C@@H](CO)C(=O)N[C@@H](CO)C(=O)N[C@H](C(=O)N[C@@H](CC(N)=O)C(=O)N[C@H](C(=O)NCC(=O)N[C@@H](CO)C(=O)N[C@@H](CC(N)=O)C(=O)N[C@H](C(=O)N[C@@H](Cc1ccc(O)cc1)C(N)=O)[C@@H](C)O)C(C)C)[C@@H](C)O [Example 46] ({C20 diacid-γGlu}-GRCNTATCATQRLANFLRHSSPNFGAIPSSTNVGSNTY-NH2; disulfide 3-8)
3 | 3.8 | – | – | – | – | 1.03 nM | 0.794 nM | 9.73 nM | 0.27 nM | CC[C@H](C)[C@H](NC(=O)[C@H](C)NC(=O)CNC(=O)[C@H](Cc1ccccc1)NC(=O)[C@H](CC(N)=O)NC(=O)[C@@H]1CCCN1C(=O)[C@H](CO)NC(=O)[C@H](CO)NC(=O)[C@H](Cc1c[nH]cn1)NC(=O)[C@H](CCCNC(=N)N)NC(=O)[C@H](CC(C)C)NC(=O)[C@H](Cc1ccccc1)NC(=O)[C@H](CCC(=O)O)NC(=O)[C@H](C)NC(=O)[C@H](CC(C)C)NC(=O)[C@H](CCCNC(=N)N)NC(=O)[C@H](CCC(N)=O)NC(=O)[C@@H](NC(=O)[C@H](C)NC(=O)[C@@H]1CSSC[C@H](NC(=O)[C@H](CCCCN)NC(=O)CC[C@H](NC(=O)CCCCCCCCCCCCCCCCCCC(=O)O)C(=O)O)C(=O)N[C@@H](CC(N)=O)C(=O)N[C@@H]([C@@H](C)O)C(=O)N[C@@H](C)C(=O)N[C@@H]([C@@H](C)O)C(=O)N1)[C@@H](C)O)C(=O)N1CCC[C@H]1C(=O)N[C@@H](CO)C(=O)N[C@@H](CO)C(=O)N[C@H](C(=O)N[C@@H](CC(N)=O)C(=O)N[C@H](C(=O)NCC(=O)N[C@@H](CO)C(=O)N[C@@H](CCC(=O)O)C(=O)N[C@H](C(=O)N[C@@H](Cc1ccc(O)cc1)C(N)=O)[C@@H](C)O)C(C)C)[C@@H](C)O [Example 22] ({C20 diacid-γGlu}-KCNTATCATQRLAEFLRHSSPNFGAIPSSTNVGSETY-NH2; disulfide 2-7)
